Source: patent publication US4416884A, “Piperazinylbenzoheterocyclic compounds” (Otsuka Pharmaceutical Co., Ltd., priority 1978, dated 1983)
≈ marks a conversion by molar mass, not a printed value. Structures can show the parent of a compound that is named as a salt. Where two headings read alike, the source gives them in different places.

What was measured:
Assay in all cases: antimicrobial activity, serial dilution method on agar plate
Type in all cases: cell-based
[1] = tested on: Pseudomonas aeruginosa ATCC 10145
Description: (§1) The antimicrobial activity of the following test compounds on various test organisms listed below was determined by the serial dilution method on agar plate (Heart Infusion agar produced by Difco Co.) (see CHEMOTHERAPY 22, pp. 1126-1128 (1974)), and the minimum inhibitory concentrations (mcg/ml) obtained are shown in Table 1 below.
(§2) A sample of each test organism was prepared so that the population of the organism was 1×10^8 cells/ml (O.D. 660 mμ=0.07 to 0.16) and 1×10^6 cells/ml (which was obtained by diluting the above 1×10^8 cells/ml preparation).

[2] = tested on: Pseudomonas aeruginosa E-2
Description: as §1, §2

[3] = tested on: Pseudomonas aeruginosa NCTC 10490
Description: as §1, §2

[4] = tested on: Salmonella typhi 0-901 (NCTC 8393); details: Salmonella enterica
Description: as §1, §2

Shigella Sonnei EW 33 = details: read-out: Minimum Inhibitory Concentration
Description: as §1, §2

[5] = tested on: Staphylococcus aureus FDA 209 P
Description: as §1, §2

Proteus rettgeri NIH 96 = details: Providencia rettgeri
Description: as §1, §2

[6] = tested on: Serattia marcescens IFO 12648
Description: as §1, §2

Klebsiella pneumoniae = tested on: Klebsiella pneumoniae
Description: as §1, §2

[7] = tested on: Escherichia Coli NIHJ JC-2 (IFO 12734); details: Escherichia coli, read-out: Minimum Inhibitory Concentration
Description: as §1, §2

[8] = tested on: Streptococcus pyogenes IID S-23; details: read-out: Minimum Inhibitory Concentration
Description: as §1, §2

[9] = ATCC10145, read-out: Minimum Inhibitory Concentration, inoculum 1 × 10^8 cells/ml
[10] = E2, read-out: Minimum Inhibitory Concentration, inoculum 1 × 10^8 cells/ml
[11] = NCTC10490, read-out: Minimum Inhibitory Concentration, inoculum 1 × 10^8 cells/ml
[12] = inoculum 1 × 10^8 cells/ml, read-out: Minimum Inhibitory Concentration
[13] = FDA209, read-out: Minimum Inhibitory Concentration, inoculum 1 × 10^8 cells/ml
[14] = NIH96, read-out: Minimum Inhibitory Concentration, inoculum 1 × 10^8 cells/ml
[15] = read-out: Minimum Inhibitory Concentration, inoculum 1 × 10^8 cells/ml
[16] = ATCC10145, inoculum 1 × 10^8 cells/ml, read-out: Minimum Inhibitory Concentration
[17] = E2, inoculum 1 × 10^8 cells/ml, read-out: Minimum Inhibitory Concentration
[18] = NCTC10490, inoculum 1 × 10^8 cells/ml, read-out: Minimum Inhibitory Concentration
[19] = FDA209, inoculum 1 × 10^8 cells/ml, read-out: Minimum Inhibitory Concentration
[20] = NIH96, inoculum 1 × 10^8 cells/ml, read-out: Minimum Inhibitory Concentration
[21] = IIDS23, inoculum 1 × 10^8 cells/ml
[22] = inoculum 1 × 10^6 cells/ml, read-out: Minimum Inhibitory Concentration

| SMILES | MIC (Shigella Sonnei EW 33; inoculum 1 × 10^8 cells/ml) [µg/mL] | MIC [1, 16] [µg/mL] | MIC [2, 17] [µg/mL] | MIC [3, 18] [µg/mL] | MIC [4, 15] [µg/mL] | MIC [5, 19] [µg/mL] | MIC (Proteus rettgeri NIH 96; [20]) [µg/mL] | MIC [6, 12] [µg/mL] | MIC (Klebsiella pneumoniae; [12]) [µg/mL] | MIC ([7]; inoculum 1 × 10^8 cells/ml) [µg/mL] | other results |
| --- | --- | --- | --- | --- | --- | --- | --- | --- | --- | --- | --- |
| O=C(O)c1cn2c3c(c(N4CCNCC4)c(Cl)cc3c1=O)CCC2 [Compound P, 9-Chloro-8-(1-piperazinyl)-6,7-dihydro-1-oxo-1H,5H--benzo[ij]quinolizine-2-carboxylic acid hydrochloride] | 1.6 |  |  |  |  |  |  |  |  |  | MIC [1, 9]: 6.3 µg/mL; MIC [2, 10]: 6.3 µg/mL; MIC [3, 11]: 6.3 µg/mL; MIC [4, 12]: 0.8 µg/mL; MIC [5, 13]: 6.3 µg/mL; MIC (Proteus rettgeri NIH 96; [14]): 0.4 µg/mL; MIC [6, 15]: 1.6 µg/mL; MIC (Klebsiella pneumoniae; [15]): 0.8 µg/mL; MIC [7]: 1.6 µg/mL |
| CC1CCc2c(N3CCN(C(=O)C(F)(F)C(F)(F)F)CC3)c(Cl)cc3c(=O)c(C(=O)O)cn1c23 (centres unmarked) [d] | 0.78 (≈ 1.54 µM) | 1.56 (≈ 3.07 µM) | 6.25 (≈ 12.3 µM) | 3.13 (≈ 6.16 µM) | 0.1 (≈ 0.197 µM) | 1.56 (≈ 3.07 µM) | 0.2 (≈ 0.394 µM) | 0.2 (≈ 0.394 µM) | 0.39 (≈ 0.768 µM) | 0.39 (≈ 0.768 µM) | MIC [8, 21]: 12.5 µg/mL (≈ 24.6 µM) |
| CC1Cc2c(N3CCN(C)CC3)c(Cl)cc3c(=O)c(C(=O)O)cn1c23 (centres unmarked) [Compound Z, 8-Chloro-9-(4-methyl-1-piperazinyl)-2-methyl-6-oxo-1,2-dihydro-6H--pyrrolo[3,2,1-ij]-quinoline-5-carboxylic acid] | 0.2 (≈ 0.553 µM) | 3.1 (≈ 8.57 µM) | 6.3 (≈ 17.4 µM) | 3.1 (≈ 8.57 µM) | 0.1 (≈ 0.276 µM) | 0.8 (≈ 2.21 µM) | 0.4 (≈ 1.11 µM) | 0.4 (≈ 1.11 µM) | 0.2 (≈ 0.553 µM) | 0.2 (≈ 0.553 µM) | MIC ([1]; ATCC10145, inoculum 1 × 10^6 cells/ml, read-out: Minimum Inhibitory Concentration): 3.1 µg/mL (≈ 8.57 µM); MIC ([2]; E2, inoculum 1 × 10^6 cells/ml, read-out: Minimum Inhibitory Concentration): 3.1 µg/mL (≈ 8.57 µM); MIC ([3]; NCTC10490, inoculum 1 × 10^6 cells/ml, read-out: Minimum Inhibitory Concentration): 3.1 µg/mL (≈ 8.57 µM); MIC ([4]; read-out: Minimum Inhibitory Concentration, inoculum 1 × 10^6 cells/ml): 0.1 µg/mL (≈ 0.276 µM); MIC (Shigella Sonnei EW 33; inoculum 1 × 10^6 cells/ml): 0.2 µg/mL (≈ 0.553 µM); MIC ([5]; FDA209, inoculum 1 × 10^6 cells/ml, read-out: Minimum Inhibitory Concentration): 0.4 µg/mL (≈ 1.11 µM); MIC (Proteus rettgeri NIH 96; NIH96, inoculum 1 × 10^6 cells/ml, read-out: Minimum Inhibitory Concentration): 0.2 µg/mL (≈ 0.553 µM); MIC ([8]; IIDS23, inoculum 1 × 10^6 cells/ml): 6.3 µg/mL (≈ 17.4 µM); MIC [8, 21]: 12.5 µg/mL (≈ 34.5 µM); MIC [6, 22]: 0.4 µg/mL (≈ 1.11 µM); MIC (Klebsiella pneumoniae; [22]): 0.2 µg/mL (≈ 0.553 µM); MIC ([7]; inoculum 1 × 10^6 cells/ml): 0.2 µg/mL (≈ 0.553 µM) |
| O=C(O)c1cn2c3c(c(N4CCNCC4)ccc3c1=O)CC2 [Compound Q, 9-(1-Piperazinyl)-6-oxo-1,2-dihydro-6H--pyrrolo[3,2,1-ij]quinoline-5-carboxylic acid hydrochloride] | 3.1 |  |  |  |  |  |  |  |  |  | MIC [1, 9]: 50 µg/mL; MIC [2, 10]: 50 µg/mL; MIC [3, 11]: 25 µg/mL; MIC [4, 12]: 6.3 µg/mL; MIC [5, 13]: 100 µg/mL; MIC (Proteus rettgeri NIH 96; [14]): 25 µg/mL; MIC [6, 15]: 6.3 µg/mL; MIC (Klebsiella pneumoniae; [15]): 12.5 µg/mL; MIC [7]: 25 µg/mL |
| CN1CCN(c2ccc3c(=O)c(C(=O)O)cn4c3c2CCC4)CC1 [Compound L, 8-(4-Methyl-1-piperazinyl)-6,7-dihydro-1-oxo-1H,5H--benzo[ij]quinolizine-2-carboxylic acid] | 3.1 (≈ 9.47 µM) | 50 (≈ 153 µM) | 50 (≈ 153 µM) | 50 (≈ 153 µM) | 3.1 (≈ 9.47 µM) | 6.3 (≈ 19.2 µM) | 3.1 (≈ 9.47 µM) | 6.3 (≈ 19.2 µM) | 6.3 (≈ 19.2 µM) | 1.6 (≈ 4.89 µM) |  |
| Cc1ccc(S(=O)(=O)N2CCN(c3ccc4c(=O)c(C(=O)O)cn5c4c3CCC5)CC2)cc1 [Compound S, 8-(4-p-Toluenesulfonyl-1-piperazinyl)-6,7-dihydro-1-oxo-1H,5H--benzo[ij]quinolizine-2-carboxylic acid] | 3.1 (≈ 6.63 µM) | 25 (≈ 53.5 µM) | 50 (≈ 107 µM) | 12.5 (≈ 26.7 µM) | 1.6 (≈ 3.42 µM) | 6.3 (≈ 13.5 µM) | 3.1 (≈ 6.63 µM) | 6.3 (≈ 13.5 µM) | 3.1 (≈ 6.63 µM) | 1.6 (≈ 3.42 µM) |  |
| CS(=O)(=O)N1CCN(c2ccc3c(=O)c(C(=O)O)cn4c3c2CCC4)CC1 [Compound O, 8-(4-Methanesulfonyl-1-piperazinyl)-6,7-dihydro-1-oxo-1H,5H--benzo[ij]quinolizine-2-carboxylic acid] | 6.3 (≈ 16.1 µM) | 100 (≈ 255 µM) | 100 (≈ 255 µM) | 25 (≈ 63.9 µM) | 1.6 (≈ 4.09 µM) | 3.1 (≈ 7.92 µM) | 6.3 (≈ 16.1 µM) | 12.5 (≈ 31.9 µM) | 6.3 (≈ 16.1 µM) | 6.3 (≈ 16.1 µM) |  |
